Test system: HuapoAI transgenic mice
Assay: Evaluation of triglyceride and cholesterol level in HuapoAI transgenic mice
Type: in vivo
Conditions: Mus musculus, 168 h, 30 mg/kg daily oral gavage 7 days; for change in vivo at 30 mg/kg: percent increase in FPLC HDLc area under the curve; for inhibition in vivo at 30 mg/kg: serum, male human apoAI transgenic mice, read-out: % Triglyceride Reduction
Description: Five to six week old male mice, transgenic for human apoAI [C57Bl/6-tgn(apoa1)lrub, Jackson Laboratory, Bar Harbor, Me.] were housed five per cage (10″×20″×8″ with aspen chip bedding) with food (Purina 5001) and water available at all times. After an acclimation period of 2 weeks, animals were individually identified by ear notches, weighed, and assigned to groups based on body weight. Beginning the following morning, mice were dosed daily by oral gavage for 7 days using a 20 gauge, 1½″ curved disposable feeding needle (Popper & Sons). Treatments were test compounds (30 mg/kg), a positive control (fenofibrate, 100 mg/kg) or vehicle [1% carboxymethylcellulose (w/v)/0.25% Tween80 (w/v); 0.2 ml/mouse]. Prior to termination on day 7, mice were weighed and dosed. Three hours after dosing, animals were anesthetized by inhalation of isoflurane (2-4%; Abbott Laboratories, Chicago, Ill.) and blood obtained via cardiac puncture (0.7-1.0 ml). Whole blood was transferred to serum separator tubes (Vacutainer SST), chilled on ice, and permitted to clot. Serum was obtained after centrifugation at 4° C. and frozen until analysis for triglycerides, total cholesterol, compound levels, and serum lipoprotein profile by fast protein liquid chromatography (FPLC) coupled to an inline detection system. After sacrifice by cervical dislocation, the liver, heart and epididymal fat pads were excised and weighed.
The animals dosed with vehicle had average triglycerides values of 60-80 mg/dl, which were reduced by the positive control fenofibrate (33-58 mg/dl with a mean reduction of 37%). The animals dosed with vehicle had average total serum cholesterol values of 140-180 mg/dl, which were increased by fenofibrate (190-280 mg/dl, with a mean elevation of 41%). […] Fenofibrate increased the amount of HDLc (68-96 v-sec with a mean percent increase of 48%).
Glucose was measured colorimetrically using commercially purchased reagents (Sigma #315-500). According to the manufacturers, the procedures were modified from published work (McGowan, M. W., Artiss, J. D., Strandbergh, D. R. & Zak, B. Clin Chem, 20:470-5 (1974) and Keston, A. Specific colorimetric enzymatic analytical reagents for glucose. Abstract of papers 129th Meeting ACS, 31C (1956).); and depend on the release of a mole of hydrogen peroxide for each mole of analyte, coupled with a color reaction first described by Trinder (Trinder, P. Determination of glucose in blood using glucose oxidase with an alternative oxygen acceptor. Ann Clin Biochem, 6:24 (1969)). The absorbance of the dye produced is linearly related to the analyte in the sample. The assays were further modified in our laboratory for use in a 96 well format. Standards (Sigma #339-11, Sigma #16-11, and Sigma #CC0534 for glucose triglycerides and total cholesterol, respectively), quality control plasma (Sigma # A2034), and samples (2 or 5 μl/well) were measured in duplicate using 200 μl of reagent. An additional aliquot of sample, pipetted to a third well and diluted in 200 μl water, provided a blank for each specimen. Plates were incubated at room temperature (18, 15, and 10 minutes for glucose, triglycerides and total cholesterol, respectively) on a plate shaker (DPC Micormix 5) and absorbance read at 500 nm (glucose and total cholesterol) or 540 nm (triglycerides) on a plate reader (Wallac Victor 1420). Sample absorbances were compared to a standard curve (100-800, 10-500, and 100-400 mg/dl for glucose, triglycerides and total cholesterol, respectively). Values for the quality control sample were always within the expected range and the coefficient of variation for samples was below 10%. All samples from an experiment were assayed at the same time to minimize inter-assay variability.
Serum lipoproteins were separated and cholesterol quantitated with an in-line detection system. Sample was applied to a Superose® 6 HR 10/30 size exclusion column (Amersham Pharmacia Biotech) and eluted with phosphate buffered saline-EDTA at 0.5 ml/min. […]

Compound | change in vivo at 30 mg/kg [%] | inhibition in vivo at 30 mg/kg [%]
Cc1oc(-c2ccccc2)nc1CCOc1ccc(OC(C)(C)C(=O)O)cc1 [Example 1, 2-Methyl-2-{4-[2-(5-methyl-2-phenyloxazol-4-yl)ethoxy]phenoxy}propionic acid] | 77 | 79.2
Cc1oc(-c2cccc(Br)c2)nc1CCOc1ccc(OC(C)(C)C(=O)O)cc1 [Example 9A, 2-(4-{2-[2-(3-Bromophenyl)-5-methyloxazol-4-yl]ethoxy}phenoxy)-2-methylpropionic acid] | 118 | 67.1
CCc1cccc(-c2nc(CCOc3ccc(OC(C)(C)C(=O)O)cc3)c(C)o2)c1 [Example 12, 2-(4-{2-[2-(3-Ethylphenyl)-5-methyloxazol-4-yl]ethoxy}phenoxy)-2-methylpropionic acid] | 180 | 74.3
Cc1oc(-c2cccc(CCc3ccccc3)c2)nc1CCOc1ccc(OC(C)(C)C(=O)O)cc1 [Example 12A, 2-Methyl-2-(4-{2-[5-methyl-2-(3-phenethylphenyl)oxazol-4-yl]ethoxy}phenoxy)-propionic acid] | 47 | 
CCc1ccc(-c2nc(CCOc3ccc(OC(C)(C)C(=O)O)cc3)c(C)o2)cc1 [Example 13, 2-(4-{2-[2-(4-Ethylphenyl)-5-methyloxazol-4-yl]ethoxy}phenoxy)-2-methylpropionic acid] | 133 | 44.8
Cc1oc(-c2ccc(OC3CCCCC3)cc2)nc1CCOc1ccc(OC(C)(C)C(=O)O)cc1 [Example 21, 2-(4-{2-[2-(4-Cyclohexyloxy-phenyl)-5-methyl-oxazol-4-yl]-ethoxy}-phenoxy)-2-methyl-propionic acid] | 9 | 
Cc1cc(OCCc2nc(-c3ccccc3)oc2C)ccc1OC(C)(C)C(=O)O [Example 24, 2-Methyl-2-{2-methyl-4-[2-(5-methyl-2-phenyloxazol-4-yl)ethoxy]phenoxy}propionic acid] | 61 | 75
CCCc1cc(OCCc2nc(-c3ccccc3)oc2C)ccc1OCC(=O)O [Example 26, {4-[2-(5-methyl-2-phenyl-oxazol-4-yl)ethoxy]-2-propylphenoxy}acetic acid] | 19 | 25.5
CCCc1cc(OCCc2nc(-c3ccccc3)oc2C)ccc1OC(C)(C)C(=O)O [Example 26A, 2-Methyl-2-{4-[2-(5-methyl-2-phenyloxazol-4-yl)ethoxy]-2-propylphenoxy}propionic acid] | 43 | 35.9
CCCc1cc(OC(C)(C)C(=O)O)ccc1OCCc1nc(-c2ccccc2)oc1C [Example 27A, 2-Methyl-2-{4-[2-(5-methyl-2-phenyloxazol-4-yl)ethoxy]-3-propylphenoxy}propionic acid] | 52 | 29.5
CCc1cc(OCCc2nc(-c3ccccc3)oc2C)ccc1OC(C)(C)C(=O)O [Example 30A, 2-{2-Ethyl-4-[2-(5-methyl-2-phenyloxazol-4-yl)ethoxy]phenoxy}2-methylpropionic acid] | 93 | 51.8
Cc1oc(-c2ccccc2)nc1CCOc1ccc(OC(C)(C)C(=O)O)c(CC(C)C)c1 [Example 30C, 2-{2-Isobutyl-4-[2-(5-methyl-2-phenyloxazol-4-yl)ethoxy]phenoxy}-2-methylpropionic acid] | 31 | 6.2
Cc1oc(-c2ccccc2)nc1CCOc1ccc(OC(C)(C)C(=O)O)c(CCc2ccccc2)c1 [Example 30J, 2-Methyl-2-{4-[2-(5-methyl-2-phenyloxazol-4-yl)ethoxy]-2-phenethylphenoxy}propionic acid] | 77 | 
CCCCc1cc(OC(C)(C)C(=O)O)ccc1OCCc1nc(-c2ccccc2)oc1C [Example 31F, 2-{3-Butyl-4-[2-(5-methyl-2-phenyloxazol-4-yl)ethoxy]phenoxy}-2-methylpropionic acid] | 79 | 35.7
Cc1oc(-c2ccccc2)nc1CCOc1ccc(OC(C)(C)C(=O)O)c(Cc2ccccc2)c1 [Example 32, 2-{2-Benzyl-4-[2-(5-methyl-2-phenyloxazol-4-yl)ethoxy]phenoxy}-2-methylpropionic acid] | 20 | 
Cc1oc(-c2ccccc2)nc1CCOc1ccc(OC(C)(C)C(=O)O)c2ccccc12 [Example 37, 2-Methyl-2-{4-[2-(5-methyl-2-phenyl-oxazol-4-yl)-ethoxy]-naphthalen-1-yloxy}-propionic acid] | 94 | 29.9
Cc1oc(-c2ccccc2)nc1CCOc1ccc(OC(C)(C)C(=O)O)c2c1CCCC2 [Example 38, 2-Methyl-2-{4-[2-(5-methyl-2-phenyl-oxazol-4-yl)-ethoxy]-5,6,7,8-tetrahydro-naphthalen-1-yloxy}-propionic acid] | 86 | 39

— patent US7351728B2, “Oxazolyl-aryloxyacetic acid derivatives and their use as PPAR agonists” (Eli Lilly and Company, priority 2003, dated 2008)
